Reference: PubChem BioAssay (NCI)
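48-hour exposure; five concentrations; linearly interpolated endpoints. GI50: concentration for 50% inhibition of growth. TGI marks complete inhibition of growth.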

Assays:
Test in all cases: growth of human tumour cells (NCI), 48 h
[1] = test system: 786-0 renal
[2] = test system: A498 renal
[3] = test system: A549 NSCLC
[4] = test system: ACHN renal
[5] = test system: BT-549 breast
[6] = test system: CAKI-1 renal
[7] = test system: CCRF-CEM leukemia
[8] = test system: COLO 205 colon
[9] = test system: DU-145 prostate
[10] = test system: EKVX NSCLC
[11] = test system: HCC-2998 colon
[12] = test system: HCT-116 colon
[13] = test system: HCT-15 colon
[14] = test system: HL-60(TB) leukemia
[15] = test system: HOP-62 NSCLC
[16] = test system: HOP-92 NSCLC
[17] = test system: HS 578T breast
[18] = test system: HT29 colon
[19] = test system: IGROV1 ovarian
[20] = test system: K-562 leukemia
[21] = test system: KM12 colon
[22] = test system: LOX IMVI melanoma
[23] = test system: M14 melanoma
[24] = test system: MALME-3M melanoma
[25] = test system: MCF7 breast
[26] = test system: MDA-MB-231 breast
[27] = test system: MDA-MB-435
[28] = test system: MDA-N
[29] = test system: MOLT-4 leukemia
[30] = test system: NCI-H226 lung
[31] = test system: NCI-H23 lung
[32] = test system: NCI-H460 lung
[33] = test system: NCI-H522 lung
[34] = test system: NCI/ADR-RES ovarian
[35] = test system: OVCAR-3 ovarian
[36] = test system: OVCAR-4 ovarian
[37] = test system: OVCAR-5 ovarian
[38] = test system: OVCAR-8 ovarian
[39] = test system: PC-3 prostate
[40] = test system: RPMI-8226 leukemia
[41] = test system: RXF 393 renal
[42] = test system: SF-268 CNS
[43] = test system: SF-295 CNS
[44] = test system: SF-539 CNS
[45] = test system: SK-MEL-2 melanoma
[46] = test system: SK-MEL-28 melanoma
[47] = test system: SK-MEL-5 melanoma
[48] = test system: SK-OV-3 ovarian
[49] = test system: SN12C renal
[50] = test system: SNB-19 CNS
[51] = test system: SNB-75 CNS
[52] = test system: SR leukemia
[53] = test system: SW-620 colon
[54] = test system: T-47D breast
[55] = test system: TK-10 renal
[56] = test system: U251 CNS
[57] = test system: UACC-257 melanoma
[58] = test system: UACC-62 melanoma
[59] = test system: UO-31 renal

COc1ccc(C(CC(C)=O)c2c(O)c3ccccc3oc2=O)cc1OC (configuration not stated)
TGI [1]: > 100 µM | TGI [2]: > 100 µM | TGI [3]: > 100 µM | TGI [4]: > 100 µM | TGI [5]: > 100 µM | TGI [6]: > 100 µM | TGI [7]: > 100 µM | TGI [8]: > 100 µM | TGI [9]: > 100 µM | TGI [10]: > 100 µM | TGI [11]: > 100 µM | TGI [12]: > 100 µM | TGI [13]: > 100 µM | TGI [14]: > 100 µM | TGI [15]: > 100 µM | TGI [16]: > 100 µM | TGI [17]: > 100 µM | TGI [18]: > 100 µM | TGI [19]: > 100 µM | TGI [20]: > 100 µM | TGI [21]: > 100 µM | TGI [22]: > 100 µM | TGI [23]: > 100 µM | TGI [24]: > 100 µM | TGI [25]: > 100 µM | TGI [26]: > 100 µM | TGI [27]: > 100 µM | TGI [28]: > 100 µM | TGI [29]: > 100 µM | TGI [30]: > 100 µM | TGI [31]: > 100 µM | TGI [32]: > 100 µM | TGI [33]: > 100 µM | TGI [34]: > 100 µM | TGI [35]: > 100 µM | TGI [36]: > 100 µM | TGI [37]: > 100 µM | TGI [38]: > 100 µM | TGI [39]: > 100 µM | TGI [40]: > 100 µM | TGI [41]: > 100 µM | TGI [42]: > 100 µM | TGI [43]: > 100 µM | TGI [44]: > 100 µM | TGI [45]: > 100 µM | TGI [46]: > 100 µM | TGI [47]: > 100 µM | TGI [48]: > 100 µM | TGI [49]: > 100 µM | TGI [50]: > 100 µM | TGI [51]: > 100 µM | TGI [52]: > 100 µM | TGI [53]: > 100 µM | TGI [54]: > 100 µM | TGI [55]: > 100 µM | TGI [56]: > 100 µM | TGI [57]: > 100 µM | TGI [58]: > 100 µM | TGI [59]: > 100 µM

N#Cc1c(N2CCCC2)ncn(-c2ccccc2)c1=S
TGI [1]: > 100 µM | TGI [2]: > 100 µM | TGI [3]: > 100 µM | TGI [4]: > 100 µM | TGI [5]: > 100 µM | TGI [6]: > 100 µM | TGI [7]: > 100 µM | TGI [8]: > 100 µM | TGI [9]: > 100 µM | TGI [10]: > 100 µM | TGI [11]: > 100 µM | TGI [12]: > 100 µM | TGI [13]: > 100 µM | TGI [14]: > 100 µM | TGI [15]: > 100 µM | TGI [16]: > 100 µM | TGI [17]: > 100 µM | TGI [18]: > 100 µM | TGI [19]: > 100 µM | TGI [20]: > 100 µM | TGI [21]: > 100 µM | TGI [22]: > 100 µM | TGI [23]: > 100 µM | TGI [24]: > 100 µM | TGI [25]: > 100 µM | TGI [26]: > 100 µM | TGI [27]: > 100 µM | TGI [28]: > 100 µM | TGI [29]: > 100 µM | TGI [30]: > 100 µM | TGI [31]: > 100 µM | TGI [32]: > 100 µM | TGI [33]: > 100 µM | TGI [34]: > 100 µM | TGI [35]: > 100 µM | TGI [36]: > 100 µM | TGI [37]: > 100 µM | TGI [38]: > 100 µM | TGI [39]: > 100 µM | TGI [40]: > 100 µM | TGI [41]: > 100 µM | TGI [42]: > 100 µM | TGI [43]: > 100 µM | TGI [44]: > 100 µM | TGI [45]: > 100 µM | TGI [46]: > 100 µM | TGI [47]: > 100 µM | TGI [48]: > 100 µM | TGI [49]: > 100 µM | TGI [50]: > 100 µM | TGI [51]: > 100 µM | TGI [52]: > 100 µM | TGI [53]: > 100 µM | TGI [54]: > 100 µM | TGI [55]: > 100 µM | TGI [56]: > 100 µM | TGI [57]: > 100 µM | TGI [58]: 69.3 µM | TGI [59]: > 100 µM

COc1ccccc1-c1cc(=O)c2c(C)ccnc2[nH]1
GI50 [1]: 59.9 µM | TGI [1]: > 100 µM | TGI [2]: 85.3 µM | TGI [3]: > 100 µM | TGI [4]: > 100 µM | TGI [5]: 44.3 µM | TGI [6]: > 100 µM | TGI [7]: > 100 µM | TGI [8]: 69.3 µM | TGI [9]: > 100 µM | TGI [10]: > 100 µM | TGI [11]: > 100 µM | GI50 [12]: 7.58 µM | TGI [12]: 46.3 µM | TGI [13]: > 100 µM | GI50 [14]: 21 µM | TGI [14]: 83.7 µM | TGI [15]: > 100 µM | TGI [16]: > 100 µM | TGI [17]: 61.4 µM | TGI [18]: > 100 µM | TGI [19]: > 100 µM | TGI [20]: > 100 µM | TGI [21]: > 100 µM | TGI [22]: > 100 µM | TGI [23]: > 100 µM | TGI [24]: > 100 µM | TGI [25]: > 100 µM | TGI [26]: > 100 µM | GI50 [27]: 6.52 µM | TGI [27]: 30.5 µM | GI50 [28]: 8.41 µM | TGI [28]: 33.1 µM | TGI [29]: > 100 µM | TGI [30]: 98.9 µM | TGI [31]: > 100 µM | GI50 [32]: 23.9 µM | TGI [32]: > 100 µM | TGI [33]: 43.7 µM | TGI [34]: 53.2 µM | GI50 [35]: 12.8 µM | TGI [35]: 43.1 µM | TGI [36]: > 100 µM | TGI [37]: > 100 µM | TGI [38]: > 100 µM | GI50 [39]: 21 µM | TGI [39]: > 100 µM | TGI [40]: > 100 µM | TGI [41]: > 100 µM | TGI [42]: > 100 µM | GI50 [43]: 23.7 µM | TGI [43]: 80.1 µM | TGI [44]: > 100 µM | TGI [45]: > 100 µM | TGI [46]: > 100 µM | GI50 [47]: 22.6 µM | TGI [47]: 96.6 µM | TGI [48]: > 100 µM | TGI [49]: > 100 µM | TGI [50]: > 100 µM | TGI [51]: 56.8 µM | TGI [52]: 64.2 µM | TGI [53]: 40.7 µM | TGI [54]: > 100 µM | TGI [55]: > 100 µM | GI50 [56]: 35.3 µM | TGI [56]: > 100 µM | TGI [57]: > 100 µM | TGI [58]: > 100 µM | TGI [59]: > 100 µM

CC(C)NC(=O)OCc1c(COC(=O)NC(C)C)c(-c2ccc[n+](COC(=O)C(C)C)c2)n2c1CCC2
TGI [1]: > 100 µM | TGI [2]: 61.2 µM | TGI [3]: > 100 µM | TGI [4]: > 100 µM | TGI [5]: > 100 µM | TGI [6]: 74.2 µM | TGI [7]: > 91.2 µM | TGI [8]: > 100 µM | TGI [9]: > 100 µM | TGI [10]: > 100 µM | TGI [11]: > 100 µM | TGI [12]: > 100 µM | TGI [13]: > 100 µM | TGI [14]: > 59.4 µM | TGI [15]: > 100 µM | TGI [16]: > 94.6 µM | TGI [17]: > 100 µM | TGI [18]: > 100 µM | TGI [19]: > 100 µM | TGI [20]: > 100 µM | TGI [21]: > 100 µM | TGI [22]: > 100 µM | TGI [23]: > 100 µM | TGI [24]: > 100 µM | TGI [25]: > 100 µM | TGI [26]: > 100 µM | TGI [27]: > 100 µM | TGI [28]: > 100 µM | TGI [29]: > 79.3 µM | TGI [30]: > 100 µM | TGI [31]: > 100 µM | TGI [32]: > 100 µM | TGI [33]: 91.4 µM | TGI [34]: > 100 µM | TGI [35]: > 100 µM | TGI [36]: > 100 µM | TGI [37]: > 100 µM | TGI [38]: > 100 µM | TGI [39]: > 100 µM | TGI [40]: > 100 µM | TGI [41]: > 89.6 µM | TGI [42]: > 100 µM | TGI [43]: > 100 µM | TGI [44]: > 83.3 µM | TGI [45]: > 100 µM | TGI [46]: > 100 µM | TGI [47]: > 100 µM | TGI [48]: > 100 µM | TGI [49]: > 100 µM | TGI [50]: > 100 µM | TGI [51]: > 100 µM | TGI [52]: 97.4 µM | TGI [53]: > 100 µM | TGI [54]: > 100 µM | TGI [55]: > 100 µM | TGI [56]: > 100 µM | TGI [57]: > 100 µM | TGI [58]: > 100 µM | TGI [59]: > 100 µM
